Measurements taken from patent US8987473B2, “Ring-fused compound” (Sato Pharmaceutical Co., Ltd., priority 2011, dated 2015).

Target: human URAT1 (Homo sapiens (Human), UniProt Q96S37)
Test: Test for uric acid transport inhibition using human URAT1 expression cell
Type: cell-based
Settings: human URAT1 stable expression CHO cell; 14C-labeled uric acid 38 μM final concentration; incorporation at room temperature for 5 minutes; 100% window defined with benzbromarone 100 μM; read-out: URAT1 Inhibitory Activity (IC50)
Description: In this Example, it was evaluated whether the Example compound has the URAT1 inhibitory activity.
Human URAT1 full-length cDNA was introduced to an expression vector pcDNA5/FRT/V5-His TOPO (registered trademark) (Invitrogen Corporation). The obtained expression plasmid was introduced to Chinese hamster ovary cell (hereinafter referred to as the CHO cell) by the liposome method using Lipofectamine LTX (Invitrogen), and cultured in a selection medium including hygromycin, whereby to prepare human URAT1 stable expression cell.
The human URAT1 expression CHO cell was cultured using D-MEM/F-12 (1:1) mixed medium including 10% bovine fetal serum and hygromycin at 37° C. in the presence of 5% CO2. The cells were seeded onto a 96 well plate (Corning Incorporated) in 0.8×10^5 cells/well, and after 24 hours, the test for uric acid transport inhibition below was performed.
The medium was removed by aspiration, and then the cells were washed once with an assay buffer including 125 mM of sodium gluconate, 4.8 mM of potassium gluconate, 1.2 mM of potassium dihydrogen phosphate, 1.2 mM of magnesium sulfate, 1.3 mM of calcium gluconate and 5.6 mM of glucose. 50 μL assay buffer including the test compound in various concentrations was added, and further 50 μL assay buffer including a radioactive ligand (uric acid labeled with ^14C; 38 μM final concentration) was added, and incorporation reaction was performed at room temperature for 5 minutes. Immediately after completion of the reaction, the reaction mixture was washed twice with 100 μL ice-cold assay buffer, and 100 μL of 0.1 N sodium hydroxide was added. The reaction mixture was stirred to lyse the cells, and 4 mL Hionic-Fluor (Packard BioScience CO) was added, and then the radioactivity was measured with a liquid scintillation counter (Beckman Coulter, Inc. and Packard BioScience CO).
The radioactivity when each concentration of the test compound was added (uric acid incorporation activity, %) was calculated in which the difference of the radioactivity when the test compound was not added (DMSO added), and the radioactivity when a positive control compound, benzbromarone (known URAT1 inhibitor) was added in 100 μM, was taken as 100%, and the concentration of the test compound when the uric acid incorporation activity was inhibited to 50% (IC50) was obtained.

Chain of human URAT1 (Q96S37 whole entry): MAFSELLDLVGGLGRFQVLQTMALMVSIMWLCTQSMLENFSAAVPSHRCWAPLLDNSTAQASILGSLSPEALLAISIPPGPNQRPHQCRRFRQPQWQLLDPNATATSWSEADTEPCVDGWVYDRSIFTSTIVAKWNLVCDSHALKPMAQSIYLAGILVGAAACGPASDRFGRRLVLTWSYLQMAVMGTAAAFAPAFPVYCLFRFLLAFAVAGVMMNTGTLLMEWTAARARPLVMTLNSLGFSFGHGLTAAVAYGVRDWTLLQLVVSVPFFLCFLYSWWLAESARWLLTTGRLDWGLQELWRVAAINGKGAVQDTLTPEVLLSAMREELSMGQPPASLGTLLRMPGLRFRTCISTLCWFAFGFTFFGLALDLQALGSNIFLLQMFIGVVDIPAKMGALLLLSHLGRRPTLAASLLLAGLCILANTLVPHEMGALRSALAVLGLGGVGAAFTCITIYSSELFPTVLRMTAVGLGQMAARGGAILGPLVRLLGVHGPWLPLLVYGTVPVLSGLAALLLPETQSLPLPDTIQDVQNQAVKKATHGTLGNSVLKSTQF

`CCc1nn(Cc2c(C)cccc2C)c2cc(C(=O)O)ccc12` [Example 143, 1-(2,6-dimethylbenzyl)-3-ethyl-1H-indazole-6-carboxylic acid] was tested, and the IC50 was 35 nM.
`Cc1cccc(Cl)c1Cn1nc(C)c2ncc(-c3nnn[nH]3)cc21` [Example 160, 1-(2-chloro-6-methylbenzyl)-3-methyl-6-(1H-tetrazole-5-yl)-1H-pyrazolo[4,3-b]pyridine] showed an IC50 of 124 nM.
`Cc1cccc(C)c1Cn1nc(C)c2ccc(C(=O)O)cc21` [Example 117, 1-(2,6-dimethylbenzyl)-3-methyl-1H-indazole-6-carboxylic acid] gave an IC50 of 91 nM.
Work on `Cc1cccc(C)c1Cn1nc(C)c2ccc(CCC(=O)O)cc21` [Example 121, 3-[1-(2,6-dimethylbenzyl)-3-methyl-1H-indazole-6-yl]propionic acid] yielded an IC50 of 41 nM.
For `Cc1cc(C)c(Cn2nc(C)c3ccc(CC(=O)O)cc32)c(C)c1` [Example 108, 2-[3-methyl-1-(2,4,6-trimethylbenzyl)-1H-indazole-6-yl]acetic acid], the IC50 was 94 nM.
Work on `Cc1nn(Cc2cccc3ccccc23)c2cc(CC(=O)O)ccc12` [Example 107, 2-[3-methyl-1-(naphthalene-1-ylmethyl)-1H-indazole-6-yl]acetic acid] yielded an IC50 of 77 nM.
Work on `Cc1nn(Cc2c(Cl)cccc2Cl)c2cc(CCc3nnn[nH]3)ccc12` [Example 135, 1-(2,6-dichlorobenzyl)-3-methyl-6-[2-(1H-tetrazole-5-yl)ethyl]-1H-indazole] yielded an IC50 of 23 nM.
`Clc1cccc(Cl)c1Cn1nc(Cl)c2ncc(-c3nnn[nH]3)cc21` [Example 175, 3-chloro-1-(2,6-dichlorobenzyl)-6-(1H-tetrazole-5-yl)-1H-pyrazolo[4,3-b]pyridine] gave an IC50 of 163 nM.
`Cc1cn(Cc2ccccc2Cl)c2cc(CC(=O)O)ccc12` [Example 87, 2-[1-(2-chlorobenzyl)-3-methyl-1H-indole-6-yl]acetic acid] gave an IC50 of 88 nM.
Work on `Cc1nn(Cc2cccc3cccnc23)c2cc(CC(=O)O)ccc12` [Example 115, 2-[3-methyl-1-(quinoline-8-ylmethyl)-1H-indazole-6-yl]acetic acid] yielded an IC50 of 394 nM.
`Cc1cccc(C)c1Cn1nc(C)c2ccc(CC(=O)O)cc21` [Example 66, 2-[1-(2,6-dimethylbenzyl)-3-methyl-1H-indazole-6-yl]acetic acid] was tested, and the IC50 was 67 nM.
`Cc1nn(Cc2c(Cl)cccc2Cl)c2cc(Cc3n[nH]c(=S)o3)ccc12` [Example 137, 5-{[1-(2,6-dichlorobenzyl)-3-methyl-1H-indazole-6-yl]methyl}-1,3,4-oxadiazol-2(3H)-thione] showed an IC50 of 10 nM.
`N#Cc1nn(Cc2c(Cl)cccc2Cl)c2cc(C(=O)O)ccc12` [Example 150, 3-cyano-1-(2,6-dichlorobenzyl)-1H-indazole-6-carboxylic acid] showed an IC50 of 295 nM.
Compound `Cc1cccc(C)c1CN1CC(C)(C)c2ccc(CC(=O)O)cc21` [Example 80, 2-[1-(2,6-dimethylbenzyl)-2,3-dihydro-3,3-dimethyl-1H-indole-6-yl]acetic acid] has an IC50 of 18 nM.
`Cc1cn(Cc2c(Cl)cccc2Cl)c2cc(CC(=O)O)ccc12` [Example 82, 2-[1-(2,6-dichlorobenzyl)-3-methyl-1H-indole-6-yl]acetic acid] gave an IC50 of 15 nM.
With `Cc1cn(Cc2c(F)cccc2Cl)c2cc(CC(=O)O)ccc12` [Example 86, 2-[1-(2-chloro-6-fluorobenzyl)-3-methyl-1H-indole-6-yl]acetic acid] the IC50 was 28 nM.
`Cc1nn(Cc2c(Cl)cccc2Cl)c2cc(CC(=O)O)ccc12` [Example 97, 2-[1-(2,6-dichlorobenzyl)-3-methyl-1H-indazole-6-yl]acetic acid] gave an IC50 of 18 nM.
Work on `Cc1cccc(C)c1CN1CC(C)c2ccc(CC(=O)O)cc21` (stereo not shown) [Example 78, (3-RS)-2-[1-(2,6-dimethylbenzyl)-2,3-dihydro-3-methyl-1H-indole-6-yl]acetic acid] yielded an IC50 of 24 nM.
For `Cc1cccc(C)c1CN1CCc2ccc(CC(=O)O)cc21` [Example 75, 2-[1-(2,6-dimethylbenzyl)-2,3-dihydro-1H-indole-6-yl]acetic acid], the IC50 was 77 nM.
`Cc1cccc(C)c1Cn1cc(C(C)C)c2ccc(C(=O)O)cc21` [Example 92, 1-(2,6-dimethylbenzyl)-3-isopropyl-1H-indole-6-carboxylic acid] gave an IC50 of 71 nM.
`Cc1cccc(C)c1Cn1cc(C)c2ccc(C(=O)O)cc21` [Example 61, 1-(2,6-dimethylbenzyl)-3-methyl-1H-indole-6-carboxylic acid] gave an IC50 of 46 nM.
`CCc1nn(Cc2c(C)cccc2Cl)c2cc(C(=O)O)cnc12` [Example 170, 1-(2-chloro-6-methylbenzyl)-3-ethyl-1H-pyrazolo[4,3-b]pyridine-6-carboxylic acid] gave an IC50 of 80 nM.
Work on `Cc1nn(Cc2c(Cl)cccc2C#N)c2cc(CCC(=O)O)ccc12` [Example 125, 3-[1-(2-chloro-6-cyanobenzyl)-3-methyl-1H-indazole-6-yl]propionic acid] yielded an IC50 of 72 nM.
`Cc1nn(Cc2c(Cl)cccc2Cl)c2cc(CS(=O)(=O)O)ccc12` [Example 139, [1-(2,6-dichlorobenzyl)-3-methyl-1H-indazole-6-yl]methanesulfonic acid] gave an IC50 of 653 nM.
Work on `CCc1nn(Cc2c(C)cccc2C)c2cc(CC(=O)O)ccc12` [Example 142, 2-[1-(2,6-dimethylbenzyl)-3-ethyl-1H-indazole-6-yl]acetic acid] yielded an IC50 of 50 nM.
Work on `Cc1nn(Cc2c(Cl)cccc2Cl)c2cc(-c3nnn[nH]3)cnc12` [Example 156, 1-(2,6-dichlorobenzyl)-3-methyl-6-(1H-tetrazole-5-yl)-1H-pyrazolo[4,3-b]pyridine] yielded an IC50 of 438 nM.
`Cc1nn(Cc2c(F)cccc2Cl)c2cc(CC(=O)O)ccc12` [Example 104, 2-[1-(2-chloro-6-fluorobenzyl)-3-methyl-1H-indazole-6-yl]acetic acid] gave an IC50 of 101 nM.
`Cc1cccc(C)c1Cn1cc(Cl)c2ccc(CC(=O)O)cc21` [Example 68, 2-[3-chloro-1-(2,6-dimethylbenzyl)-1H-indole-6-yl]acetic acid] was tested, and the IC50 was 30 nM.
Work on `Cc1nn(Cc2csc3ccc(Cl)cc23)c2cc(CCC(=O)O)ccc12` [Example 124, 3-{1-[(5-chlorobenzo[b]thiophene-3-yl)methyl]-3-methyl-1H-indazole-6-yl}propionic acid] yielded an IC50 of 31 nM.
In the case of `Cc1nn(Cc2c(Cl)cccc2C2CC2)c2cc(CCC(=O)O)ccc12` [Example 185, 3-[1-(2-chloro-6-cyclopropylbenzyl)-3-methyl-1H-indazole-6-yl]propionic acid], the IC50 is reported as 17 nM.
`Cc1cccc(Cl)c1Cn1nc(C)c2ccc(CC(=O)O)cc21` [Example 102, 2-[1-(2-chloro-6-methylbenzyl)-3-methyl-1H-indazole-6-yl]acetic acid] gave an IC50 of 52 nM.
`Cc1cn(Cc2c(Cl)cccc2Cl)c2cc(CCC(=O)O)ccc12` [Example 89, 3-[1-(2,6-dichlorobenzyl)-3-methyl-1H-indole-6-yl]propionic acid] gave an IC50 of 23 nM.
Compound `Cc1nn(Cc2c(Cl)cccc2Cl)c2cc(CCC(=O)O)ccc12` [Example 122, 3-[1-(2,6-dichlorobenzyl)-3-methyl-1H-indazole-6-yl]propionic acid] has an IC50 of 10 nM.
Compound `Cc1nn(Cc2c(Cl)cccc2C2CC2)c2cc(-c3nnn[nH]3)cnc12` [Example 164, 1-(2-chloro-6-cyclopropylbenzyl)-3-methyl-6-(1H-tetrazole-5-yl)-1H-pyrazolo[4,3-b]pyridine] has an IC50 of 55 nM.
`CCc1nn(Cc2c(Cl)cccc2Cl)c2cc(C(=O)O)ccc12` [Example 144, 1-(2,6-dichlorobenzyl)-3-ethyl-1H-indazole-6-carboxylic acid] was tested, and the IC50 was 42 nM.
For `Cc1nn(Cc2cccc(Cl)c2Cl)c2cc(CC(=O)O)ccc12` [Example 99, 2-[1-(2,3-dichlorobenzyl)-3-methyl-1H-indazole-6-yl]acetic acid], the IC50 was 41 nM.
With `Cc1cccc(C)c1Cn1c(=O)n(C(C)C)c2ccc(C(=O)O)cc21` [Example 186, 3-(2,6-dimethylbenzyl)-1-isopropyl-2-oxo-2,3-dihydro-1H-benzimidazole-5-carboxylic acid] the IC50 was 165 nM.
With `O=C(O)c1cnc2c(Cl)nn(Cc3c(Cl)cccc3Cl)c2c1` [Example 172, 3-chloro-1-(2,6-dichlorobenzyl)-1H-pyrazolo[4,3-b]pyridine-6-carboxylic acid] the IC50 was 162 nM.
`Cc1nn(Cc2c(Cl)cccc2Cl)c2cc(C(=O)O)cnc12` [Example 153, 1-(2,6-dichlorobenzyl)-3-methyl-1H-pyrazolo[4,3-b]pyridine-6-carboxylic acid] gave an IC50 of 361 nM.
With `Cc1nn(Cc2c(Cl)cccc2Cl)c2cc(CCCC(=O)O)ccc12` [Example 133, 4-[1-(2,6-dichlorobenzyl)-3-methyl-1H-indazole-6-yl]butyric acid] the IC50 was 16 nM.
